Experiments:
Experiment in all cases: relative viability (nuclei count vs DMSO), 5 days (fraction); higher = more cells survive
Mirin = compound: N=C1NC(=O)/C(=C/c2ccc(O)cc2)S1 [Mirin]
In short: (§1)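 Viability is treated-well nuclei as a fraction of vehicle-well nuclei, reported as the median across plates. Before counting, lung cancer cell lines were kept overnight at 37 °C in 1536-well plates, pinned with five √10-spaced library-drug doses on vehicle-anchored plates, and left 5 days without medium change, then fixed, permeabilised and Hoechst-stained in one step, imaged at 4× and counted by MetaXpress. A plate passed only if control CV was below 25% and at least one doubling occurred.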

[1] = compound: CCn1c(-c2nonc2N)nc2cnc(Oc3cccc(NC(=O)c4ccc(OCCN5CCOCC5)cc4)c3)cc21
In short: as §1

[2] = compound: CCC1=CN=CN=C1N2CCN(CC2)CC3=NC4=C(N3)C=C(C=C4)C(F)(F)F
In short: as §1

[3] = compound: CCn1c(-c2nonc2N)nc2cnc(Oc3cccc(NC(=O)c4ccc(OCCN5CCOCC5)cc4)c3)cc21 + Cc1nc(Nc2ncc(C(=O)Nc3c(C)cccc3Cl)s2)cc(N2CCN(CCO)CC2)n1 [Dasatinib] (partner 0.075 µM)
In short: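 Nuclei were stained with Hoechst during a one-step fixation (final 0.05% Triton X-100, 1% formaldehyde, 1 ug/ml Hoechst) carried out 5 days after dosing, then counted on 4× images. The cells, lung cancer lines in 1536-well plates, had been dosed by pin tool the day after seeding with one drug alone or a fixed anchor-drug dose plus five library-drug doses (not always all listed) in √10 steps. Relative viability is the nuclei count in treated wells divided by that in vehicle wells, and each value is the median of duplicate plates.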

| Cell Line | relative viability (Mirin; 0.25 µM) | relative viability (Mirin; 0.7906 µM) | relative viability (Mirin; 2.5 µM) | relative viability (Mirin; 7.906 µM) | relative viability (Mirin; 25 µM) | relative viability ([1]; 0.04 µM) | relative viability ([1]; 0.1265 µM) | relative viability ([1]; 0.4 µM) | relative viability ([1]; 1.265 µM) | relative viability ([1]; 4 µM) | relative viability ([2]; 0.04 µM) | relative viability ([2]; 0.1265 µM) | relative viability ([2]; 0.4 µM) | relative viability ([2]; 1.265 µM) | relative viability ([2]; 4 µM) | relative viability ([3]; first compound 0.04 µM) | relative viability ([3]; first compound 0.1265 µM) | relative viability ([3]; first compound 0.4 µM) | relative viability ([3]; first compound 1.265 µM) | relative viability ([3]; first compound 4 µM) |
| --- | --- | --- | --- | --- | --- | --- | --- | --- | --- | --- | --- | --- | --- | --- | --- | --- | --- | --- | --- | --- |
| NCI-H2009 | 1.01 | 1.08 | 1.04 | 0.843 | 1.01 | 0.978 | 0.754 | 0.676 | 0.374 | 0.418 | 1.08 | 0.991 | 0.989 | 0.963 | 0.933 | 0.266 | 0.144 | 0.136 | 0.148 | 0.152 |
| NCI-H2023 | 1.01 | 0.937 | 0.958 | 0.975 | 0.86 | 1.13 | 0.964 | 0.743 | 0.508 | 0.419 | 1.03 | 0.914 | 0.917 | 0.858 | 1.03 | 0.519 | 0.424 | 0.257 | 0.294 | 0.232 |
| NCI-H2085 | 0.981 | 0.979 | 1.01 | 0.957 | 0.99 | 1.09 | 0.919 | 0.826 | 0.778 | 0.765 | 0.896 | 0.912 | 0.949 | 0.918 | 0.972 | 0.307 | 0.308 | 0.396 | 0.251 | 0.223 |
| NCI-H2087 | 1.01 | 1 | 0.983 | 0.896 | 1.2 | 1.21 | 0.812 | 0.844 | 0.698 | 0.637 | 1.05 | 0.958 | 0.973 | 0.854 | 0.716 | 0.866 | 0.673 | 0.544 | 0.558 | 0.63 |
| NCI-H2126 | 1.03 | 0.908 | 0.995 | 1 | 0.979 | 1.09 | 1.04 | 0.74 | 0.792 | 0.943 | 1 | 0.977 | 0.969 | 0.891 | 1.02 | 0.628 | 0.522 | 0.284 |  | 0.336 |
| NCI-H2170 | 1.05 | 0.89 | 0.985 | 0.946 | 0.933 | 0.95 | 0.953 | 0.919 | 0.732 | 0.754 | 0.946 | 0.97 | 0.953 | 0.848 | 0.946 | 0.553 | 0.676 | 0.665 | 0.515 | 0.443 |
| NCI-H2228 | 1.09 | 0.89 | 0.969 | 0.886 | 1.02 | 1.26 | 0.964 | 0.908 | 0.919 | 0.881 | 1 | 0.858 | 0.99 | 0.928 | 0.98 | 0.592 | 0.519 | 0.431 | 0.407 | 0.421 |
| NCI-H2342 | 0.998 | 1.02 | 1.03 | 0.668 | 0.888 | 1.04 | 1.05 | 0.874 | 0.748 | 0.804 | 0.936 | 0.888 | 0.864 | 0.543 | 0.72 | 0.332 | 0.319 | 0.294 | 0.289 | 0.302 |
| NCI-H2347 | 0.962 | 0.972 | 1.08 | 0.957 | 1.03 | 1.1 | 1.02 | 0.878 | 0.504 | 0.546 | 1.05 | 0.986 | 1.04 | 0.827 | 1.09 | 0.402 | 0.436 | 0.286 | 0.374 | 0.349 |
| NCI-H2405 | 0.967 | 0.928 | 0.974 | 0.968 | 0.997 | 1.05 | 0.668 | 0.254 | 0.318 | 0.327 | 0.968 | 0.989 | 0.981 |  | 1.11 | 0.239 | 0.166 | 0.158 | 0.135 | 0.139 |
| NCI-H3122 | 1.03 | 0.953 | 1.02 | 1.08 | 1.1 | 1.01 | 0.978 | 0.924 | 0.755 | 0.695 | 1.05 | 1.01 | 0.964 | 1.03 | 1.1 | 0.955 | 0.82 | 0.651 | 0.554 | 0.525 |
| PC-3 [JPC-3] | 1.07 | 1.04 | 1.01 | 1.12 | 1.2 | 1.02 | 0.976 | 0.982 | 0.947 | 0.926 | 1.01 | 0.947 | 0.965 | 1.01 | 1.02 | 0.981 | 0.902 | 0.605 | 0.728 | 0.648 |
| PC-14 | 0.975 | 0.906 | 1.03 | 1.05 | 1.13 | 1.08 | 0.834 | 0.809 | 0.729 | 0.653 | 0.97 | 0.919 | 0.99 | 0.979 | 1 | 0.221 | 0.173 | 0.174 | 0.158 | 0.115 |
| RERF-LC-KJ | 1.07 | 1.08 | 1.01 | 1.04 | 1 | 1.02 | 0.971 | 0.872 | 0.619 | 0.637 | 0.956 | 0.968 | 1.01 | 0.924 | 0.991 | 0.88 | 0.746 | 0.462 | 0.43 | 0.347 |
| SK-LU-1 | 1.14 | 1.07 | 1.07 | 0.809 | 0.905 | 1.16 | 0.795 | 0.672 | 0.452 | 0.566 | 1.1 | 0.969 | 0.967 | 0.808 | 0.994 | 0.157 | 0.15 | 0.103 | 0.139 | 0.128 |
| SK-MES-1 | 1.02 | 1.1 | 1.05 | 1.12 | 1.28 | 1.1 | 0.915 | 0.82 | 0.709 | 0.746 | 1.04 | 0.975 | 0.983 | 1 | 0.985 | 0.429 | 0.256 | 0.224 | 0.244 | 0.172 |
| SW 900 | 1 | 0.773 | 0.888 | 0.98 | 0.869 | 0.892 | 0.946 | 0.917 | 0.716 | 0.83 | 0.842 | 0.928 | 0.866 | 0.626 | 0.857 | 0.413 | 0.456 | 0.312 | 0.42 | 0.41 |
| SW 1573 | 0.986 | 0.825 | 0.986 | 0.968 | 0.779 | 1.1 | 0.992 | 0.74 | 0.488 | 0.338 | 0.925 | 1.08 | 0.912 | 0.858 | 0.941 | 0.597 | 0.319 | 0.21 | 0.246 | 0.166 |
